{"source": "patent US20210298305A1", "about": "“USE OF A DIFLUORO-(2-HYDROXYPROPYL)PYRIDINE COMPOUND AS A FUNGICIDE FOR CONTROL OF PHYTOPATHOGENIC FUNGI OF WHEAT” (Dow AgroSciences LLC, priority 2016, published 2021)", "key": {"[1]": {"test_system": "Parastagonospora nodorum (LEPTNO)", "experiment": "Field assessment of glume blotch in spring wheat (protectant and curative)", "assay_type": "in vivo", "details": "for 2 DC percent control based on AUDPC: 2 Day curative; for 3 DP percent control based on AUDPC: 3 Day protectant", "excerpt": "A fungicidal treatment containing Compound I, sprayed alone in an EC formulation […] and tank mixed with an adjuvant (Agnique BP-420, 50% w/w at 0.3% v/v), was applied at B37-39 growth stage of spring wheat ([…] variety) for protectant tests at rates of 25, 50, 100 and 150 g ai/ha. After three days, the wheat plants were artificially inoculated with Parastagonospora nodorum at B39 growth stage of wheat. Compound I was then applied two days later (same rates and formulations) to the plants at B39-41 growth stage of wheat (2 day curative test)."}, "[2]": {"test_system": "mixture of Fusarium graminearum and Fusarium culmorum isolates", "assay_type": "in vivo", "details": "100 g ai/ha, with Agnique BP-420"}, "[3]": {"test_system": "Blumeria graminis f. sp. tritici (ERYSGT)", "experiment": "Field assessment of powdery mildew in Durum wheat, three trials", "assay_type": "in vivo"}, "[4]": {"test_system": "Puccinia striiformis (PUCCST)", "experiment": "Field assessment of yellow (stripe) rust in winter wheat, three curative trials", "details": "tank mix with Trycol 5941", "description": "A fungicidal treatment containing Compound I was assessed against yellow rust of wheat (PUCCST) in three separate field trials. In each trial, all Compound I treatments were applied in a tank mix with Trycol 5941 (50% w/w) at 0.2% v/v as an adjuvant. […] The treatment was part of an experimental trial designed as a randomized complete block with four replications and a plot of approximately 1×2 m. Treatments were applied at water volume of 200 L/ha, using a backpack plot sprayer (BKPCKAIR, 1 m band width, FLATFAN F110-03 Lurmark nozzle) and pressurized at 180 kPa. Disease severity (% visual infection) was assessed 4 times on leaf 1 (L1, flag leaf, 33-47 DAA) and 5 times on leaf 2 (L2, 27-54 DAA).\nThe treatment was part of an experimental trial designed as a randomized complete block with four replications and a plot of approximately 2×3 m. Treatments were applied at water volume of 200 L/ha, using a backpack precision plot sprayer (BKCKENG, 2 m band width, FFA110-015 Hardi nozzle) and pressurized at 200 kPa. Disease severity (% visual infection) was assessed following application A one time on leaf 2 (23 DAA). Following application B, disease severity was assessed 4 times on leaf 1 (11-45 DAA) and 3 times on leaf 2 (11-31 DAA).\nThe treatment was part of an experimental trial designed as a randomized complete block with four replications and a plot of approximately 2×3 m. Treatments were applied at water volume of 150 L/ha, using a backpack precision plot sprayer ([sequence], 2 m band width, FLAT FAN FF015 nozzle). Disease severity (% visual infection) was assessed 3 times on leaf 1 (47-68 DAA) and 4 times on leaf 2 (36-68 DAA).\nDisease severity (percentage of visual diseased foliage on whole plot or leaves) in all three field trials was recorded following EPPO PP1/26 guideline prescriptions. Area under the disease progress curve (AUDPC) was calculated for each plot in each of the three trials using the sets of recorded severity data. Relative AUDPC (% control based on AUDPC) was calculated as percent of the nontreated control."}, "[5]": {"test_system": "Puccinia recondita (PUCCRT)", "experiment": "Field assessment of brown rust in spring wheat (curative tests)", "assay_type": "in vivo", "details": "for Test A % Control (based on AUDPC): early curative; for Test B % Control (based on AUDPC): late curative"}, "[6]": {"details": "25 g ai/ha, with adjuvant Agnique BP-420"}, "[7]": {"details": "50 g ai/ha, with adjuvant Agnique BP-420"}, "[8]": {"details": "100 g ai/ha, with adjuvant Agnique BP-420"}, "[9]": {"details": "150 g ai/ha, with adjuvant Agnique BP-420"}}}
{"smiles": "N#Cc1ccc(Oc2ccc(C(F)(F)C(O)(Cn3ncnc3S)c3ccc(F)cc3F)nc2)cc1", "note": "(stereo not shown) [Compound I, 4-((6-(2-(2,4-difluorophenyl)-1,1-difluoro-2-hydroxy-3-(5-mercapto-1H-1,2,4-triazol-1-yl)propyl)pyridin-3-yl)oxy)benzonitrile]", "values": [{"measurement": "2 DC percent control based on AUDPC", "setting": "[1]; [6]", "value": "C (26-50)"}, {"measurement": "2 DC percent control based on AUDPC", "setting": "[1]; 50 g ai/ha, no adjuvant", "value": "C (26-50)"}, {"measurement": "2 DC percent control based on AUDPC", "setting": "[1]; [7]", "value": "C (26-50)"}, {"measurement": "2 DC percent control based on AUDPC", "setting": "[1]; [8]", "value": "B (51-75)"}, {"measurement": "2 DC percent control based on AUDPC", "setting": "[1]; [9]", "value": "B (51-75)"}, {"measurement": "3 DP percent control based on AUDPC", "setting": "[1]; [6]", "value": "C (26-50)"}, {"measurement": "3 DP percent control based on AUDPC", "setting": "[1]; 50 g ai/ha, no adjuvant", "value": "C (26-50)"}, {"measurement": "3 DP percent control based on AUDPC", "setting": "[1]; [7]", "value": "C (26-50)"}, {"measurement": "3 DP percent control based on AUDPC", "setting": "[1]; [8]", "value": "B (51-75)"}, {"measurement": "3 DP percent control based on AUDPC", "setting": "[1]; [9]", "value": "B (51-75)"}, {"measurement": "Percent Control (calculated with FHB index using incidence and % infection)", "setting": "[2]; sprayed on heads at flowering one day before inoculation, winter wheat", "value": "B (51-75)"}, {"measurement": "Yield", "setting": "[2]; winter wheat crop harvest, untreated 6.0", "value": 8.4, "unit": "t/ha"}, {"measurement": "% Control (AUDPC over 3 trials)", "setting": "[3]; 25 g ai/ha, EC formulation, Adjuvant X (Plurafac LF 1300 EC)", "value": "B (51-75)"}, {"measurement": "% Control (AUDPC over 3 trials)", "setting": "[3]; 25 g ai/ha, SC formulation, Adjuvant Y (Agnique BP420 EW with Agnique FOH TDA-9)", "value": "B (51-75)"}, {"measurement": "% Control (AUDPC over 3 trials)", "setting": "[3]; 50 g ai/ha, EC formulation, Adjuvant X (Plurafac LF 1300 EC)", "value": "B (51-75)"}, {"measurement": "% Control (AUDPC over 3 trials)", "setting": "[3]; 50 g ai/ha, SC formulation, Adjuvant Y (Agnique BP420 EW with Agnique FOH TDA-9)", "value": "B (51-75)"}, {"measurement": "% Control (AUDPC over 3 trials)", "setting": "[3]; 75 g ai/ha, EC formulation, Adjuvant X (Plurafac LF 1300 EC)", "value": "A (76-100)"}, {"measurement": "% Control (AUDPC over 3 trials)", "setting": "[3]; 75 g ai/ha, SC formulation, Adjuvant Y (Agnique BP420 EW with Agnique FOH TDA-9)", "value": "B (51-75)"}, {"measurement": "% Control (AUDPC over 3 trials)", "setting": "[3]; 100 g ai/ha, EC formulation, Adjuvant X (Plurafac LF 1300 EC)", "value": "A (76-100)"}, {"measurement": "% Control (AUDPC over 3 trials)", "setting": "[3]; 100 g ai/ha, SC formulation, Adjuvant Y (Agnique BP420 EW with Agnique FOH TDA-9)", "value": "A (76-100)"}, {"measurement": "% Control (AUDPC over 3 trials)", "setting": "[3]; 150 g ai/ha, EC formulation, Adjuvant X (Plurafac LF 1300 EC)", "value": "A (76-100)"}, {"measurement": "% Control (AUDPC over 3 trials)", "setting": "[3]; 150 g ai/ha, SC formulation, Adjuvant Y (Agnique BP420 EW with Agnique FOH TDA-9)", "value": "A (76-100)"}, {"measurement": "Curative Trials (% Control), AUDPC average over three trials", "setting": "[4]; 50 g ai/ha", "value": "B (51-75)"}, {"measurement": "Curative Trials (% Control), AUDPC average over three trials", "setting": "[4]; 100 g ai/ha", "value": "B (51-75)"}, {"measurement": "Curative Trials (% Control), AUDPC average over three trials", "setting": "[4]; 150 g ai/ha", "value": "B (51-75)"}, {"measurement": "Test A % Control (based on AUDPC)", "setting": "[5]; [6]", "value": "A (76-100)"}, {"measurement": "Test A % Control (based on AUDPC)", "setting": "[5]; 50 g ai/ha, no adjuvant", "value": "A (76-100)"}, {"measurement": "Test A % Control (based on AUDPC)", "setting": "[5]; [7]", "value": "A (76-100)"}, {"measurement": "Test A % Control (based on AUDPC)", "setting": "[5]; 100 g ai/ha, no adjuvant", "value": "A (76-100)"}, {"measurement": "Test A % Control (based on AUDPC)", "setting": "[5]; [8]", "value": "A (76-100)"}, {"measurement": "Test A % Control (based on AUDPC)", "setting": "[5]; [9]", "value": "A (76-100)"}, {"measurement": "Test B % Control (based on AUDPC)", "setting": "[5]; [6]", "value": "B (51-75)"}, {"measurement": "Test B % Control (based on AUDPC)", "setting": "[5]; 50 g ai/ha, no adjuvant", "value": "A (76-100)"}, {"measurement": "Test B % Control (based on AUDPC)", "setting": "[5]; [7]", "value": "A (76-100)"}, {"measurement": "Test B % Control (based on AUDPC)", "setting": "[5]; 100 g ai/ha, no adjuvant", "value": "A (76-100)"}, {"measurement": "Test B % Control (based on AUDPC)", "setting": "[5]; [8]", "value": "A (76-100)"}, {"measurement": "Test B % Control (based on AUDPC)", "setting": "[5]; [9]", "value": "A (76-100)"}]}
